The text below walks through data of US8143316B2, “Method for treating peripheral vascular diseases” (Sucampo AG, priority 2005, dated 2012).

The test system of one data set is Male Wistar rats. Briefly: Decreased peripheral microcirculation (cutaneous tissue blood flow) induced by ET-1 infusion in rats. In kind it is in vivo, rat. The conditions noted are these: 100 μg/kg i.v.; for blood pressure: ET-1 infused rats; for cutaneous tissue blood flow: flow decreased by ET-1 infusion, up to 60 min after administration, vs vehicle. How it is done: Male Wistar rats (7-week-old) were used in this study. Animals were anesthetized by intraperitoneal injection of thiobutabarbital sodium (80 mg/kg). Body temperature (rectal temperature) of the animals was maintained at approximately 37° C. throughout the experiment with a heating pad. After depilating the instep of the right hind limb with a depilatory cream, the cutaneous tissue blood flow was measured continuously using a non-contact type laser Doppler flowmeter (FLO-N1, Omegawave Inc., Japan). For measurements of mean arterial blood pressure, a polyethylene catheter placed in the left femoral artery was connected to a pressure transducer (TP-400T, Nihon Koden Inc., Japan) coupled to an amplifier (AP-641G, Nihon Koden Inc., Japan). The cutaneous tissue blood flow and blood pressure were recorded and analyzed using a computer system (HEM Ver. 3.5, Notocord Systems, France). Endothelin-1 (ET-1) was infused into the femoral artery at a rate of 200 pmol/kg/min with a syringe pump via the polyethylene catheter inserted retrogradely into the caudal epigastric artery branched from the right femoral artery for 15 minutes. Infusion rate of ET-1 was decreased to 20 pmol/kg/min after the termination of 200 pmol/kg/min infusion, and the decreased amount of ET-1 infusion was kept until the end of this study. The cutaneous tissue blood flow was decreased by the infusion of ET-1 into the femoral artery. When the cutaneous tissue blood flow was reached a new steady level (25 to 50 minutes after starting ET-1 infusion), vehicle or each test compound solution was administered to the animals over 2 minutes in a volume of 1 mL/kg via the polyethylene catheter placed in the left femoral vein. The administered amount of the test compound was 100 μg/kg. The cutaneous tissue blood flow and blood pressure were measured continuously and recorded every 5 minutes for 60 minutes after the administration of vehicle or each test solution.

The subject of data set [1] is platelet-rich plasma (PRP). The data set can be described thus: ADP-induced platelet aggregation in rabbit platelet-rich plasma. In kind it is cell-based. The following applies: for Maximum aggregation: ADP-induced, mean ± S.E. of 3 rabbits; for Inhibition of platelet aggregation: vs vehicle control (100%). The procedure:
Four months old male Kbs: J.W. rabbits were housed in aluminum cages in an animal room controlled for roomtemperature (23-24° C.), relative humidity (55-74%), ventilation rate (10-20 times/hour) and 12-hour light/dark cycle (lighting: 7:00 a.m.-7:00 p.m.). The animals were feeded with solid diet for rabbits (120 g/animal/day) and water ad libitum from automatic eatering system. The animals were subjected to at least 6 days of quarantine and acclimation. During the period, their body weight measurements and general sign observations were conducted, and the animals judged to be in good health were used in this study.
A cannula was inserted into the common carotid artery of the rabbit under inhalation anesthesia of isoflurane. Nine parts of the blood samples obtained through the cannula were mixed with 1 part of 3.8 w/v % sodium citrate. After centrifugation of the blood samples for 10 min at 1,000 rpm, platelet-rich plasma (PRP) was collected from the top layer. Then the bottom layer was further centrifuged for 15 min at 3,000 rpm, and platelet-poor plasma (PPP) was collected from the top layer. The platelet counts of the PRP and PPP fractions were performed using an ADVIA120 Hematology system (ADVIA120, Bayer Medical Ltd.). The PRP fraction was diluted with the PPP fraction so that the platelet counts was adjusted to approximately 30×10^4 cells/μL. Thus obtained PRP (0.178 mL) was put into a cuvet, and pre-incubated on a warm bath at 37° C. for about 5 minutes. Test solution (0.022 mL) containing prostaglandin E1 or Compound A was added to the PRP. One minute later, 25 μM ADP solution (0.022 mL) was added and the degree of platelet aggregation was measured using a platelet aggregation measuring device (NBS hematolaser, Nikko Bioscience Inc.). For each test solution, a duplicate test was performed on the blood samples from 3 animals. Inhibition rate (%) was evaluated by comparing the aggregation in the test substance group with that in the vehicle control group (100%).

The test system of data set [2] is streptozotocin-induced diabetic rats. Briefly: Cutaneous tissue blood flow in streptozotocin-induced diabetic rats. Format: in vivo, rat. How it is done: Diabetes was induced by single intravenous injection of 50 mg/kg streptozotocin (STZ) in 7-week-old male Crl: CD(SD) rats. Animals with plasma glucose levels 400 mg/dL or more on day 19 after the STZ treatment were used in this study. Three weeks after the STZ injection, animals were anesthetized by an intraperitoneal injection of thiobutabarbital sodium. Body temperature (rectal temperature) of the animals was maintained at approximately 37° C. throughout the experiment with a heating pad After depilating the instep of the right hind limb with a depilatory cream, the cutaneous tissue blood flow (CTBF) was measured continuously using a non-contact type laser Doppler flowmeter (FLO-N1, Omegawave Inc., Japan). The blood pressure and heart rate were simultaneously monitored. Compound A or the vehicle was intravenously administered to the animals over 10 min.

A further data set deals with Male GK/Jcl rats. The data set can be described thus: Cutaneous tissue blood flow in spontaneous diabetes rats. Format: in vivo, rat. The procedure:
Male GK/Jcl rats, a spontaneous model of non-insulin-dependent diabetes, were anesthetized by an intraperitoneal injection of thiobutabarbital sodium. Body temperature (rectal temperature) of the animals was maintained at approximately 37° C. throughout the experiment with a heating pad. After depilating the instep of the right hind limb with a depilatory cream, the cutaneous tissue blood flow (CTBF) was measured before (base line) and 20 minutes after intravenous administration of Compound A or the vehicle using a non-contact type laser Doppler flowmeter (FLO-N1, Omegawave Inc., Japan). Data was expressed as % compared with the base line cutaneous tissue blood flow.

Data set [3] has as its system male Japanese white rabbits. The data set can be described thus: Intraocular pressure after topical eye application in rabbits. Format: in vivo, rabbit. The following applies: 0.0016% topical. The procedure:
Eight male Japanese white rabbits (Std: JW/CSK) weighing approximately 2.5-3.5 kg were used in this study. The same eye of each animal was treated with the test compounds and the other eye was with the vehicle consistently throughout the study with a washout period between each treatment. Thirty microliters of each test compound solution was applied topically to one eye of each animal using a micropipette (Pipetman, Gilson, Inc., France). The contralateral control eye received an equal volume of the vehicle. The animals were dosed at approximately the same time each morning. After the animals were restrained in a holder, one drop of topical anesthetic (0.4% oxybuprocaine hydrochloride) was applied to both eyes and the IOP was measured with an applanation pneumatonometer (Model 30 Classic™, Mentor O & O, Inc., USA) before dosing, and at 1, 2, 4, 6, and 8 hours after dosing.

In another data set the test system is Male Crl: CD(SD) rats. Briefly: Cutaneous tissue blood flow in anesthetized rats. Format: in vivo, rat. The procedure: Male Crl: CD(SD) rats were anesthetized by an intraperitoneal injection of thiobutabarbital sodium. Body temperature (rectal temperature) of the animals was maintained at approximately 37° C. throughout the experiment with a heating pad. After depilating the instep of the right hind limb with a depilatory cream, the cutaneous tissue blood flow CTBF) was measured before and 30 minutes after intravenous administration of Compound C (11-deoxy-13,14-dihyrdo-16,16-difluoro-PGE1) or the vehicle using a non-contact type laser Doppler flowmeter (FLO-N1, Omegawave Inc., Japan). The blood pressure and heart rate were also monitored.

The structures appear in SMILES notation.

In the case of `CCCCC(F)(F)C(=O)CCC1CCC(=O)C1CCCCCCC(=O)O` (centres unmarked) [Compound A, 11-deoxy-13,14-dihydro-15-keto-16,16-difluoro-PGE1], the blood pressure result in the data set on Male Wistar rats is given as “no significant effect”. The “cutaneous tissue blood flow” value with Male Wistar rats is “significantly increased”. In addition, the results for the Maximum aggregation in data set [1] (1 × 10^−5 g/mL), in data set [1] (1 × 10^−6 g/mL) and in data set [1] (1 × 10^−7 g/mL) were 36.8 ± 3.1%, 36.2 ± 4.0% and 35.2 ± 3.9%, respectively. The “Inhibition of platelet aggregation” value in data set [1] (1 × 10^−5 g/mL) is reported as −1.4%; in data set [1] (1 × 10^−6 g/mL), 0.3%; in data set [1] (1 × 10^−7 g/mL), 3.0%. For the same molecule, the “effect on platelet aggregation (in words)” value in data set [1] (up to the highest concentration (1×10^−5 g/mL) tested) is listed as “no effect”. Moreover, in data set [2] (30 μg/kg i.v. over 10 min, before dosing (baseline), mean ± S.E., n=5), the “Cutaneous Tissue Blood Flow, Pre” value is recorded as 4.8 ± 0.5 mL/min/100 g tissue. The “blood pressure (BP)” value in data set [2] (STZ diabetic rats, i.v.) is “no effects”. For the same molecule, in data set [2] (STZ diabetic rats, i.v.), the heart rate entry is reported as “no effects”. Besides, the “cutaneous tissue blood flow (in words)” value in data set [2] (STZ diabetic rats, i.v., compared with vehicle) was “significantly increased”; in the data set on Male GK/Jcl rats (spontaneous diabetes rats, i.v., compared with vehicle), “significantly increased”. Moreover, the “Cutaneous Tissue Blood Flow compared with the base line” value in the data set with Male GK/Jcl rats (20 μg/kg i.v., 20 minutes after administration, mean ± S.E., n=5) was determined as 122 ± 1 %. Besides, the “IOP, 1 hr after administration” value in data set [3] (30 μL, 1 hr, mean ± SE, n=8) is 13.1 ± 0.6 mmHg. The “IOP, 2 hr after administration” value in data set [3] (30 μL, 2 hr, mean ± SE, n=8) turned out to be 14.5 ± 0.6 mmHg. Besides, the “IOP, 4 hr after administration” value in data set [3] (30 μL, 4 hr, mean ± SE, n=8) came out at 13.8 ± 0.8 mmHg. Further, in data set [3] (30 μL, 6 hr, mean ± SE, n=8), the “IOP, 6 hr after administration” value was 15.1 ± 1.0 mmHg. Besides, in data set [3] (30 μL, 8 hr, mean ± SE, n=8), the “IOP, 8 hr after administration” value is recorded as 17.5 ± 1.3 mmHg. Also, the “IOP, Pre” value in data set [3] (30 μL, before dosing (baseline), mean ± SE, n=8) came out at 17.0 ± 0.8 mmHg. For the same molecule, the “intraocular pressure (in words)” value in data set [3] (vs vehicle-treated contralateral eye) is “significantly lowered”.

`CCCCC(F)(F)C(=O)CCC1CCC(=O)C1CCCCCCC(=O)OC(C)C` (centres unmarked) [Compound B, 11-deoxy-13,14-dihydro-15-keto-16,16-difluoro-PGE1 isopropyl ester]: in the data set on Male Wistar rats, the blood pressure entry is on record as “no significant effect” and the “cutaneous tissue blood flow” value is on record as “significantly increased”.

Take `CCCCC(F)(F)C(O)CCC1CCC(=O)C1CCCCCCC(=O)O` (centres unmarked) [Compound C, 11-deoxy-13,14-dihyrdo-16,16-difluoro-PGE1]: in the data set on Male Crl: CD(SD) rats (10 μg/kg i.v., 30 minutes after administration, mean ± S.E., n=5), the “Cutaneous Tissue Blood Flow, After administration” value stood at 13.0 ± 0.2 mL/min/100 g tissue. Moreover, the “Cutaneous Tissue Blood Flow, Before administration” value with Male Crl: CD(SD) rats (10 μg/kg i.v., before administration (baseline), mean ± S.E., n=5) is 11.6 ± 0.3 mL/min/100 g tissue. In addition, in the data set with Male Crl: CD(SD) rats (i.v.), the blood pressure result was “no effects” and the heart rate entry was “no effects”. In addition, in the data set with Male Crl: CD(SD) rats (i.v., compared with vehicle treatment), the “cutaneous tissue blood flow (in words)” value is on record as “significantly increased”.

As to `CCCCC[C@H](O)/C=C/[C@H]1[C@H](O)CC(=O)[C@@H]1CCCCCCC(=O)O` [PGE1, prostaglandin E1, reference compound], the Maximum aggregation in data set [1] (1 × 10^−6 g/mL) is 4.0 ± 0.7 %; in data set [1] (1 × 10^−7 g/mL) it was 3.2 ± 0.6 %; in data set [1] (1 × 10^−8 g/mL) it was 28.7 ± 3.6%. Moreover, the “Inhibition of platelet aggregation” value in data set [1] (1 × 10^−6 g/mL) was 89.0%; in data set [1] (1 × 10^−7 g/mL), 91.2%; in data set [1] (1 × 10^−8 g/mL) it was 20.9%.
